The test system of experiment [1] is warfarin-sensitive male OFA-Sprague-Dawley rats. The experiment in a line: Prothrombin level, Quick's time (bromadiolone / cholecalciferol gavage). It is filed as in vivo, rat. The text has this:
Warfarin-sensitive male OFA-Sprague-Dawley rats (Charles River, L′Arbresles, France) are fed by gavage for 3 consecutive days with a gavage solution containing bromadiolone (LIPHATECH, France) and cholecalciferol (Sigma-Aldrich, France) in a solvent consisting of 95% (v/v) of oil and 5% (v/v) of DMSO. During this period of gavage, the rats are fed with a conventional solid feed and water in unlimited amounts. The concentrations of bromadiolone and cholecalciferol in the gavage solution are 0.1 g/kg (100 ppm) and 7.5 g/kg (7500 ppm) respectively. Each rat receives daily a volume of gavage solution calculated to correspond to 1 mL of gavage solution per kilogram of body weight. The OFA-Sprague-Dawley rats in two control groups are fed by gavage in the same conditions with gavage solutions containing bromadiolone (alone) at a concentration of 100 ppm or cholecalciferol (alone) at a concentration of 7500 ppm, respectively. 24 hours after the last gavage, a volume of blood is taken from each rat by intracardiac puncture and placed in a specimen tube containing sodium citrate. The animals are euthanized after puncture and the plasma is prepared by centrifugation. Quick's time (or clotting time) is evaluated on the plasma supplemented with sodium citrate, then decalcified and recalcified in the presence of calcium thromboplastin. Quick's time is evaluated by means of an optical device for clotting analysis (Option 2plus, Bio Mèrieux®). The results are presented [FIG. 2]. The average Quick's time measured on the plasma from the rats fed by gavage with bromadiolone (bar “B”) is 12.4 seconds (±1.8), the average Quick's time measured on the plasma from the rats fed by gavage with cholecalciferol (bar “C”) is 12.4 seconds (±0.9) and the average Quick's time measured on the plasma from the rats fed by gavage with the composition comprising bromadiolone and cholecalciferol (bar “D”) is 14.1 seconds (±2.7). The differences in values of Quick's time measured between the three groups of rats are not significant. The rats in the group of rats that received the combination of bromadiolone and cholecalciferol coagulate in the same way as the rats in the group of rats that received the gavage solution containing bromadiolone on the one hand and the rats in the group of rats that received the gavage solution containing cholecalciferol on the other hand. Quick's time for rats treated with a control solution formed from oil (95%, v/v) and DMSO (5%, v/v) is (bar “A”) 12.8 seconds (±2.3). Neither the gavage solution containing bromadiolone in combination with cholecalciferol, nor the gavage solution containing bromadiolone alone, nor the gavage solution containing cholecalciferol induces an increase of Quick's time relative to the control. […]

Experiment [2] concerns Warfarin-sensitive Sprague-Dawley rats. Nature of the experiment: Relative toxicity of cholecalciferol, single gavage dose, “SD” rats. Type of experiment: in vivo, rat. Particulars: single gavage dose 30 mg/kg; 20 days. The text has this:
(§1) Warfarin-sensitive Sprague-Dawley rats (20 male rats and 20 female rats), male and female rats that are homozygotic carriers of the L120Q mutation, male and female Sprague-Dawley rats that are homozygotic carriers of the Y139F mutation and male and female brown rats (Rattus norvegicus) that are homozygotic carriers of the Y1 39C mutation are acclimatized for 5 days in the presence of a conventional solid feed and water in unlimited amounts. The rats are fed by gavage with a single dose of a gavage solution containing cholecalciferol (Sigma-Aldrich, France) in a solvent consisting of 95% (v/v) of oil and 5% (v/v) of DMSO. The rats are fed with a conventional solid feed and water in unlimited amounts. The amount of cholecalciferol administered is 30 mg of cholecalciferol per kilogram of body weight of the rat fed by gavage. The percentage of rats surviving gavage for 20 days, counting from the first day of gavage, is noted daily. The results given in Table 4 hereunder describe the mortality observed (“SD”, Sprague-Dawley). The amount of cholecalciferol ingested by the rodents during gavage corresponds to consumption by these rodents of a bait assayed at 300 ppm of cholecalciferol.

In experiment [3] the test system is Sprague-Dawley rats that are homozygotic carriers of the Y139F mutation. Nature of the experiment: Relative toxicity of cholecalciferol, single gavage dose, Y139F rats. Type of experiment: in vivo, rat. Conditions: single gavage dose 30 mg/kg; 20 days.
From the text: as §1

Experiment [4] relates to brown rats (Rattus norvegicus) that are homozygotic carriers of the Y139C mutation. The experiment in a line: Relative toxicity of cholecalciferol, single gavage dose, Y139C rats. Type of experiment: in vivo. Conditions: single gavage dose 30 mg/kg; 20 days.
From the text: as §1

Experiment [5] has as its system warfarin-sensitive male OFA-Sprague-Dawley rats. Nature of the experiment: Synergy of difethialone and cholecalciferol on warfarin-sensitive rats, gavage, survival. Type of experiment: in vivo, rat. Conditions: gavage once a day for 3 days; cholecalciferol alone 7.5 mg/kg; after 2 days of observation. An excerpt: A group of warfarin-sensitive male OFA-Sprague-Dawley rats (Charles River, L′Arbresles, France), aged 10 weeks and with a body weight between 160 and 180 g, are fed by gavage once a day for 3 consecutive days with a gavage solution containing difethialone (LIPHATECH, France) and cholecalciferol (Sigma-Aldrich, France) in a solvent consisting of 95% (v/v) of oil and 5% (v/v) of DMSO. During this period of gavage, the rats are fed with a conventional solid feed and water in unlimited amounts. The amounts of difethialone and cholecalciferol administered are 125 μg per kilogram of body weight of the rat fed by gavage and 7.5 mg per kilogram of body weight of the rat fed by gavage, respectively. The rats in two control groups, each consisting of OFA-Sprague-Dawley rats, are fed by gavage in the same conditions with gavage solutions containing difethialone alone (125 μg/kg) or cholecalciferol alone (7.5 mg/kg), respectively. The percentage of rats surviving gavage is recorded daily, for 20 days counting from the first day of gavage. The results presented [FIG. 3] show the variation of the percentage of rodents surviving (in %) as a function of time (t, in days) following the first day of gavage. The rats fed by gavage with the difethialone solution (♦) have 100% survival after 20 days of observation. […]

Experiment [6] shares this test system. The experiment in a line: Dose/rodenticidal response effect of cholecalciferol. It is filed as in vivo, rat. Particulars: gavage, 21 days. As for the experimental part:
A gavage solution containing cholecalciferol (Sigma-Aldrich, France) in a solvent consisting of 95% (v/v) of oil and 5% (v/v) of DMSO is administered once a day for 3 consecutive days to warfarin-sensitive male OFA-Sprague-Dawley rats (Charles River, L′Arbresles, France), aged 10 weeks and with a body weight between 160 and 180 g. During this period of gavage, the rats are fed with a conventional solid feed and water in unlimited amounts. The doses of cholecalciferol administered to the OFA-Sprague-Dawley rats, given in Table 7 hereunder, are expressed in milligrams of cholecalciferol administered per kilogram of body weight of the gavage-fed rodent.
The percentage of rats surviving gavage is noted daily for 21 days counting from the first day of gavage.

The results in this text go back to patent publication US20230165242A1, “RODENTICIDAL BAIT AND METHOD OF CONTROLLING TARGET HARMFUL RODENTS” (priority 2020, published 2023).

As to `C=C1CC[C@H](O)C/C1=C/C=C1\CCC[C@]2(C)[C@@H]([C@H](C)CCCC(C)C)CC[C@@H]12` [cholecalciferol], the “anticoagulant effect (increase of Quick's time relative to the control)” value in experiment [1] (3 daily gavages, bromadiolone 100 ppm and/or cholecalciferol 7500 ppm solution, 1 mL/kg) is given as “not anticoagulants”. Moreover, the “average Quick's time (clotting time)” value in experiment [1] (plasma 24 hours after last of 3 daily gavages, 1 mL/kg of solution with bromadiolone 100 ppm and/or cholecalciferol 7500 ppm) turned out to be 12.4 s. The “Female mortality, %” value in experiment [2] was found to be 30%; in experiment [3], 0%; in experiment [4] it was 0%. The figures for the “Male mortality, %” value in experiment [2], in experiment [3] and in experiment [4] were 10%, 30% and 30%, respectively. Besides, in experiment [5], the “percentage of rats surviving” value amounted to 60%. Moreover, the figures for the “Mortality, %” value in experiment [6] (dose 5 mg/kg once a day for 3 days) and in experiment [6] (dose 7.5 mg/kg once a day for 3 days) were 20% and 30%, respectively.
